Experimental data: patent publication US8847018B2, “Plants tolerant to HPPD inhibitor herbicides” (Bayer CropScience AG, priority 2009, dated 2014)
“Also recorded” adds a separate entry of the source.

Assays:
[1] = system: soybean plants expressing the FMP22 HPPD protein; test: Greenhouse treatment of soybean events with tembotrione; type: in vivo; conditions: one FMP22 event; 100 g AI/ha, ten days after application
Protocol: (§1) Plants containing the transgene were then sprayed with HPPD inhibitor herbicides, as for example with tembotrione at a rate of 100 g Al/ha. Ten days after the application the symptoms due to the application of the herbicide were evaluated and compared to the symptoms observed on a wild type plants under the same conditions.
(§2) Concerning FMP22, one event expressing the FMP22 HPPD protein have been generated from the green shoots of above and were transferred to the greenhouse. Four weeks after acclimation, i.e. plants at a developmental stage of 3-4 internodes were treated with 100 g Al/ha tembotrione prepared from a WP 20 formulation supplemented with ammonium sulfate and methyl ester raps oil. Ten days after application, the symptoms caused by the application of the HPPD inhibitor herbicide were evaluated and compared to the symptoms observed on treated non-transgenic wild-type soybean plants. […] Concerning FMP23, six events expressing the FMP23 HPPD protein have been generated from the green shoots of above and were transferred to the greenhouse. […] Ten days after application, the symptoms caused by the application of the HPPD inhibitor herbicide were evaluated and compared to the symptoms observed on treated non-transgenic wild-type soybean plants.

[2] = system: soybean plants expressing the FMP23 HPPD protein; test: as above; type: in vivo; conditions: six FMP23 events; 100 g AI/ha, ten days after application
Protocol: as §1, §2

[3] = system: tobacco calli containing HPPD SEQ ID No. 21 (Rhodococcus); test: Rooting of calli on media with tembotrione; type: cell-based, Nicotiana tabacum; conditions: calli containing SEQ ID No. 21; 6 to 12 weeks
Protocol: (§3) The leaf disks were co-cultivated for 2 days with Agrobacterium tumefaciens cells containing either the binary vector FMP22ebv, FMP23ebv or AtHPPDbv. Then the leaf disks were transferred to a media allowing the regeneration of shoots for 6 weeks on MS (Musharige and Skoog, (1962), Physiol Plant 15(3): 473-497) media supplemented with BAP ([…]; Benzylaminopurine), carbenicillin ([…]), cefotaxine (250 mg/mL), kanamycin (75 mg/mL) and tembotrione (10^−6 M)
(§4) Regenerated calli were transferred on media to induce the development of roots for 6 to 12 weeks: MS (½), supplemented with carbenicillin (250 mg/mL), cefotaxine (250 mg/mL), kanamycin (75 mg/mL), and tembotrione (10^−6 M).
(§5) Regenerated shoot calli from a cell transformed with a nucleic acid sequence encoding an HPPD comprising SEQ ID No. 11 (Arabidopsis thaliana) SEQ ID No. 21 or SEQ ID No. 7 (Rhodococcus) were transferred to a media inducing root growth which media was further supplemented with the HPPD inhibitor tembotrione for 6 to 12 weeks.

[4] = system: tobacco calli containing HPPD SEQ ID No. 7 (Rhodococcus); test: Rooting of calli on media with tembotrione; type: cell-based, Nicotiana tabacum; conditions: calli containing SEQ ID No. 7; 6 to 12 weeks
Protocol: as §3, §4, §5

[5] = system: tobacco calli containing HPPD SEQ ID No. 11 (Arabidopsis thaliana); test: Rooting of calli on media with tembotrione; type: cell-based, Nicotiana tabacum; conditions: calli containing SEQ ID No. 11; 6 to 12 weeks
Protocol: as §3, §4, §5

[6] = system: Rhodococcus HPPD SEQ ID No. 5 (FMP22e); test: biochemical; type: biochemical, Rhodococcus sp. (strain RHA1), isolate ro03041; conditions: SEQ ID No. 5
[7] = target: Rhodococcus HPPD SEQ ID No. 19 (FMP23e); test: HPLC assay of HPPD in vitro kinetic properties; type: biochemical, Rhodococcus sp. (strain RHA1), isolate ro02040; conditions: 2 mM HPP; SEQ ID No. 19
[8] = target: (Rhodococcus jostii, UniProt Q0SF39); test: HPLC assay of HPPD in vitro kinetic properties; type: biochemical, Rhodococcus sp. (strain RHA1), isolate ro02040

## CS(=O)(=O)c1ccc(C(=O)C2C(=O)CCCC2=O)c(Cl)c1COCC(F)(F)F [Tembotrione, 2-[2-chloro-4-(methylsulfonyl)-3-[(2,2,2,-tri-fluoroethoxy)methyl]benzoyl]-1,3-cyclo-hexanedione]
[1]
  symptoms caused by the herbicide: transitory light bleaching symptoms but recovered 14 days after tembotrione application
[2]
  symptoms caused by the herbicide: One of the six events didn't show any bleaching phenotype; also recorded: One event showed transitory light bleaching symptoms but recovered 14 days after tembotrione application; also recorded: remaining four events exhibited the bleaching like non-transgenic wild-type soybean plant
[3]
  % Elongation & rooting on 10^−6 M tembotrione: 63%
  root growth on media with tembotrione: clearly developed numerous and healthy roots
[4]
  % Elongation & rooting on 10^−6 M tembotrione: 65%
  root growth on media with tembotrione: clearly developed numerous and healthy roots
[5]
  root growth on media with tembotrione: On none of the events containing the HPPD defined by SEQ ID No. 11 (Arabidopsis thaliana) or none transformed calli, root growth was observed
[6]; 2 mM HPP, 3 minutes incubation
  pI50: 5.3
[6]; 5.0 × 10^−6 M inhibitor
  percentage of inhibition compared to activity in absence of the inhibitor: 36%
[7]
  Ki: 2000 nM
[8]; read-out: k1 (Kon, association rate constant)
  kon: 3200 M⁻¹ s⁻¹
[8]; read-out: k−1 (Koff, enzyme-inhibitor complex dissociation)
  koff: 0.0063 s⁻¹
